Converted amounts (≈) assume the structure as drawn.
Experiments:
Assay type in all cases: cell-based
S. aureus ATCC 13709 = test: MIC, antibacterial potency, S. aureus; conditions: S. aureus (SA); in µg/mL
S. pneumoniae ATCC 51916 = test: MIC, S. pneumoniae; conditions: S. pneumoniae (Spn52); in µg/mL
E. coli 8 ATCC 25922 = test: MIC, E. coli 8 (wt); conditions: E. coli 8 (EC8)

MIC, SA (S. aureus ATCC 13709)	MIC Spn52 (S. pneumoniae ATCC 51916)	MIC EC8 (E. coli 8 ATCC 25922) [µg/mL]	SMILES
<=0.5	<=0.5	> 64	CCc1[nH]c2nc(Sc3ccc4nc(N)n[n+]([O-])c4c3)nc(N3CC[C@@H](N)C3)c2c1Cl [701,087]
8	16	> 64	CCc1[nH]c2nc(Oc3ccc4nccnc4c3)nc(N3CC(CN(C)C)C3)c2c1Br [701,114]
<=0.5	<=0.5	> 64	CCc1[nH]c2nc(Oc3cnc4cccnc4c3)nc(Oc3cccc(C#N)c3)c2c1Br [701,252]
8	8	> 64	CCc1[nH]c2nc(Oc3cnc(C(N)=O)nc3)nc(N3CC4C(N)C4C3)c2c1Cl (stereo not drawn) [701,133]
<=0.5	<=0.5	32 (≈ 70.8 µM)	CCc1[nH]c2nc(Oc3ccc[n+]([O-])c3)nc(Oc3cccc(C#N)c3)c2c1Br [701,267]
<=0.5	<=0.5	8 (≈ 17.1 µM)	CCc1[nH]c2nc(Sc3cnc4ccc[n+]([O-])c4c3)nc(N3C[C@@H]4[C@@H](CN)[C@@H]4C3)c2c1Cl [701,269]
<=0.5	<=0.5	> 64	CCc1[nH]c2nc(Oc3cnc(OC)c(OC)c3)nc(Oc3ccc4nccnc4c3)c2c1Br [701,096]
>64	64	> 64	CCc1[nH]c2nc(Oc3ccc4nccnc4c3)nc(OC3CCNCC3)c2c1Cl [701,290]
4	8	> 64	CCc1[nH]c2nc(Oc3cccnc3)nc(N3CC4C(N)C4C3)c2c1Cl (stereo not drawn) [701,140]
2	2	32 (≈ 82.7 µM)	CCc1[nH]c2nc(Oc3cnc(N)nc3)nc(N3CC4C(N)C4C3)c2c1Cl (stereo not drawn) [701,122]
8	64	> 64	CCc1[nH]c2nc(N3CCN(c4cc(C(=O)O)nc5ccc(Cl)cc45)CC3)ncc2c1Cl [701,260]
>64	>64	> 64	Cc1nc(Sc2cncc(C(N)=O)c2)nc2[nH]c(C(C)O)c(Cl)c12 (stereo not drawn) [701,240]
4	16	> 64	CCc1[nH]c2nc(Oc3cncnc3)nc(Oc3ccc4ncnc(N5CC(N)C5)c4c3)c2c1Br [701,297]
<=0.5	4	> 32	CCc1[nH]c2nc(Oc3ccc[n+]([O-])c3)nc(Oc3cccnc3)c2c1Br [701,093]
64	>64	> 64	CCc1[nH]c2nc(Sc3cccnc3)nc(Cl)c2c1C(F)F [701,153]
>64	>64	> 64	CCc1[nH]c2nc(Sc3cnc4cccnc4c3)nc(N3CC4CC(C3)N(C(=O)OC(C)(C)C)C4)c2c1Cl (stereo not drawn) [701,132]

Continued, compound first:

SMILES	MIC, SA (S. aureus ATCC 13709)	MIC Spn52 (S. pneumoniae ATCC 51916)	MIC EC8 (E. coli 8 ATCC 25922) [µg/mL]
CCc1[nH]c2nc(Oc3cnc4ccoc4c3)nc(N3CC(N)C3)c2c1Br [700,935]	2	32	> 64
CCc1[nH]c2nc(Sc3ccc4c(N5CCC(N)CC5)nc(C)nc4c3)nc(N3CC[C@@H](N)C3)c2c1Cl [700,983]	32	32	32 (≈ 59.5 µM)
CCc1[nH]c2nc(Oc3ccc4nccnc4c3)nc(N3CC[C@@H](NC(C)=O)C3)c2c1Cl [701,001]	4	8	> 64
CCc1[nH]c2nc(Oc3cccc(C#N)c3)nc(C(C)N)c2c1Cl (stereo not drawn) [700,946]	>64	>64	> 64
CCc1[nH]c2nc(SC)nc(N3CC[C@@H](N)C3)c2c1Cl [701,076]	>64	64	> 64
NC1C2CN(c3nc(Sc4cnc5cccnc5c4)nc4[nH]c(C5CC5)c(Cl)c34)CC12 (stereo not drawn) [701,063]	2	2	4 (≈ 8.89 µM)
CCc1[nH]c2nc(Oc3ccc4nccnc4c3)nc(Oc3ccc4c(c3)ncn4C)c2c1Br [700,998]	<=0.5	1	> 64
CCc1[nH]c2nc(Sc3ccc4c[n+]([O-])cnc4c3)nc(N3CC[C@@H](N)C3)c2c1Cl [701,051]	2	4	> 32
CCc1[nH]c2nc(Sc3cnc4cccnc4c3)nc(N3CCC(CNS(=O)(=O)c4cnoc4C)C3)c2c1Cl (stereo not drawn) [701,046]	2	4	> 64
CCc1[nH]c2nc(Oc3ccc4nccnc4c3)nc(N3CC4C(C3)C4NC(C)=O)c2c1Cl (stereo not drawn) [701,012]	1	2	> 64
CCc1[nH]c2nc(Oc3cncc(C#N)c3)nc(N3CCOCC3)c2c1Cl [701,031]	<=0.5	2	> 64
CCc1[nH]c2nc(Oc3cccc(C#N)c3)nc(C(C)N3CCC(N)C3)c2c1Cl (stereo not drawn) [700,950]	>64	>64	> 64
CCc1[nH]c2nc(Oc3cnc4c(c3)ncn4C)nc(Oc3cncc(OC)c3)c2c1Br [700,964]	<=0.5	<=0.5	> 64
CCc1[nH]c2nc(Sc3ccc4c(N5CC(CN)C5)nc(C)nc4c3)nc(N3CC[C@@H](N)C3)c2c1Cl [700,922]	32	64	4 (≈ 7.63 µM)
CCc1[nH]c2nc(Sc3cnc4cccnc4c3)nc(N3CCC(CNC(C)=O)C3)c2c1Cl (stereo not drawn) [701,044]	<=0.5	1	> 64
CCc1[nH]c2nc(Sc3ccc4[nH]c(N)nc(=O)c4c3)nc(N3CC[C@@H](N)C3)c2c1Cl [701,066]	4	>64	> 64
CCc1[nH]c2nc(Oc3ccc4nccnc4c3)nc(Oc3ccc4c(N)nc(N)nc4c3)c2c1Br [700,979]	<=0.5	4	> 64
CCc1[nH]c2nc(Sc3cnc4nccnc4c3)nc(N3CC4CC(O)C4C3)c2c1Cl (stereo not drawn) [700,957]	<=0.5	1	> 32
CCc1[nH]c2nc(Sc3cnc4cccnc4c3)nc(N3C[C@@H]4NCCO[C@H]4C3)c2c1Cl [700,958]	2	4	> 32
CCc1[nH]c2nc(Sc3ccc4nc(C)nc(N5CC6CNC6C5)c4c3)nc(N3CC[C@@H](N)C3)c2c1Cl (stereo partly drawn) [700,916]	64	>64	> 64
N[C@@H]1CCN(c2nc(Sc3cnc4cccnc4c3)nc3[nH]c(C4CC4)c(Cl)c23)C1 [701,064]	8	4	4 (≈ 9.13 µM)
CCc1[nH]c2nc(Sc3cnc4ccc[n+]([O-])c4c3)nc(N3CC4CNC4C3)c2c1Cl (stereo not drawn) [701,025]	<=0.5	2	16 (≈ 35.2 µM)
CCc1[nH]c2nc(Sc3cnc4cccnc4c3)nc(N3C[C@H](C(=O)NC4CNC4)[C@@H](N)C3)c2c1Cl [701,004]	32	>64	> 64
CCc1[nH]c2nc(Oc3cncnc3)nc(N3CC4CNC4C3)c2c1Cl (stereo not drawn) [700,941]	4	8	> 64
